# Results as given in patent US20070287752A1, “Ophthalmic Compositions Comprising A Branched, Glycerol Compound” (priority 2006, published 2007).
# Tests used:
# Assay in all cases: Preservative/disinfectant system efficacy testing (log reduction)
# Assay type in all cases: cell-based
# [1] = system: Staphylococcus aureus (ATCC 6538)
# Method: (§1) The ophthalmic compositions are evaluated in accordance with specific procedures outlined by the US Food & Drug Administration and the International Organization for Standardization for the testing of microbiocidal efficacy.
# [2] = system: Serratia marcescens (ATCC 13880)
# Method: as §1
# [3] = system: Candida albicans (ATCC 10231)
# Method: as §1
# [4] = system: Fusarium solani (ATCC 36031)
# Method: as §1
# [5] = system: Pseudomonas aeruginosa (ATCC 9027)
# Method: as §1
# [6] = 1 hr, Table 8A multi-purpose lens care formulation, disinfectant concentrations as in label
# [7] = 1 hr, phosphate buffered saline, concentrations as in label (Table 7)
# [8] = 4 hr, Table 8A multi-purpose lens care formulation, disinfectant concentrations as in label
# [9] = 4 hr, phosphate buffered saline, concentrations as in label (Table 7)
# [10] = 1 hr, Table 5A multi-purpose lens care solution, 10% organic soil, disinfectant concentrations as in label
# [11] = 1 hr, phosphate buffered saline, 10% organic soil, concentrations as in label (Table 4)
# [12] = 4 hr, Table 5A multi-purpose lens care solution, 10% organic soil, disinfectant concentrations as in label
# [13] = 4 hr, phosphate buffered saline, 10% organic soil, concentrations as in label (Table 4)
Structure (SMILES),"log reduction S. aureus [1, 6]","log reduction S. aureus [1, 7]","log reduction S. aureus [1, 8]","log reduction S. aureus [1, 9]","log reduction S. marcescens [2, 6]","log reduction S. marcescens [2, 7]","log reduction S. marcescens [2, 8]","log reduction S. marcescens [2, 9]","log reduction C. albicans [3, 6]","log reduction C. albicans [3, 7]","log reduction C. albicans [3, 8]","log reduction C. albicans [3, 9]","log reduction F. solani [4, 6]","log reduction F. solani [4, 7]","log reduction F. solani [4, 8]","log reduction F. solani [4, 9]","log reduction P. aeruginosa [5, 6]","log reduction P. aeruginosa [5, 7]","log reduction P. aeruginosa [5, 8]","log reduction P. aeruginosa [5, 9]",other results
"CCCCC(CC)CNCC(O)CO (stereo not drawn) [EHAPD, 3-[(2-ethylhexyl)amino]-1,2-propanediol]",1.2,1.4,1.2,1.4,2.7,3.3,3.2,3.8,2.4,>5.0,2.6,>5.0,2.4,2.3,4.8,5.2,1.2,1.4,1.3,1.4,–
"CCCCC(CC)CNC(=N)NC(=N)NCCCCCCNC(=N)NC(=N)NCC(CC)CCCC (stereo not drawn) [alexidine, reference compound]",3.3,1.4,3.8,1.4,4.1,2.0,>5.2,3.5,2.0,3.2,3.0,3.8,3.1,2.3,4.2,2.3,3.5,1.6,3.9,2.3,"log reduction S. aureus [1, 10]: 3.3; log reduction S. aureus [1, 11]: 1.4; log reduction S. aureus [1, 12]: 3.8; log reduction S. aureus [1, 13]: 1.4; log reduction S. marcescens [2, 10]: 4.1; log reduction S. marcescens [2, 11]: 2.0; log reduction S. marcescens [2, 12]: >5.2; log reduction S. marcescens [2, 13]: 3.5; log reduction C. albicans [3, 10]: 2.0; log reduction C. albicans [3, 11]: 3.2; log reduction C. albicans [3, 12]: 3.0; log reduction C. albicans [3, 13]: 3.8; log reduction F. solani [4, 10]: 3.1; log reduction F. solani [4, 11]: 2.3; log reduction F. solani [4, 12]: 4.2; log reduction F. solani [4, 13]: 2.3; log reduction P. aeruginosa [5, 10]: 3.5; log reduction P. aeruginosa [5, 11]: 1.6; log reduction P. aeruginosa [5, 12]: 3.9; log reduction P. aeruginosa [5, 13]: 2.3"
